Consider 1 compound from US8207136B2, “Nucleoside compounds and methods of use thereof” (The Board of Trustees of the University of Illinois, priority 2005, dated 2012).

Broadly, the IC50 is the concentration at which inhibition is half-maximal.

Test [1] concerns HUVECs. The test is described as follows: Motility assay with VEGF as chemoattractant. The class given is cell-based. To be noted: Homo sapiens, HUVEC; 24 hours pretreatment, average from two trials; read-out: IC50, cell motility. Here is the method: (§1) Different angiogenesis assays such as cord formation assay, motility assay and proliferation inhibition assay were performed at the developmental therapeutics program (DTP) branch of NCI (NCI/DTP) as described. HUVECs were used for all the assays. Taxol and TNP-470 were used as positive control for the assays.
For motility assay, HUVECs were pretreated for 24 hours with different concentrations ARC and used in the assay with vascular endothelial growth factor (VEGF) as a chemoattractant.

The test system of test [2] is HUVECs. The experiment in a line: Proliferation inhibition assay. It is filed as cell-based. The settings on record: Homo sapiens, HUVEC; 10 ng/ml VEGF, 24, 48 or 72 hours, average from two trials; read-out: IC50, HUVEC growth. The protocol:
as §1
For proliferation inhibition assay, HUVECs were grown in the absence of growth factors for 24 hours and then stimulated with 10 ng/ml VEGF and were treated with either DMSO or different concentrations of ARC for 24 hours, 48 hours or 72 hours.

In test [3] the test system is HUVECs. The test is described as follows: Cord formation assay. It is filed as cell-based. To be noted: Homo sapiens, HUVEC, 24 hours, averages from three trials. The protocol: as §1
For cord formation assay, HUVECs were plated on a three dimensional layer of Matrigel, where the cells formed cord-like structures. Later, the cells were treated with vehicle (DMSO) or different concentrations of ARC for 24 hours, after which cord formation was quantitated as a function of cord junctions and cord length.

For test [4], the system named is wild type MRC-5 human fetal lung fibroblasts. The test is described as follows: Apoptosis and cell cycle assays in wild type MRC-5 fibroblasts. It is filed as cell-based. To be noted: for cell cycle profile: 20 μM. The protocol:
Immunoblotting was performed as described with antibodies specific for p53 (sc-126 HRP; Santa Cruz), hdm2 (sc-965; Santa Cruz), p21 (556431; BD Pharmingen), Sp1 (sc-59; Santa Cruz), survivin (sc-10811; Santa Cruz), phospho RNA polymerase II (4735; Cell Signaling), total RNA polymerase II (8WG16; a gift from Dr. Schlegel, University of Illinois at Chicago), α-tubulin (T9026; Sigma), cleaved caspase-3 (9664; Cell Signaling), caspase-9 (9502; Cell Signaling) and β-actin (A5441; Sigma) antibodies.
Apoptosis was detected either by DAPI (4′,6-diamidino-2-phenylindole) staining or by Flow Cytometry after PI (Propidium Iodide) staining. For DAPI staining, all treatments (DMSO or ARC) were done in triplicates in 6-well plates and cells were stained with DAPI and visualized by fluorescent microscopy. Four random fields for each sample were photographed and at least 500 cells per field were counted to estimate apoptosis. The data is represented as mean±Standard deviation (sd).
(§2) For Flow Cytometry, cells were fixed in 70% ethanol and stored at −20° C. until further analysis. Equal numbers of fixed cells were then stained with PI solution (0.1% Triton X-100, 0.2 mg/ml DNase free RNase, 0.02 mg/ml propidium iodide) made in PBS for 15 min at 37° C. and analyzed by a flow cytometer.
The ability of ARC to induce apoptosis in wild type and SV40-transformed MRC-5 human fetal lung fibroblasts was evaluated. Twenty-four hours after treatment with ARC, transformed fibroblasts underwent robust apoptosis (around 50% and 70%, respectively, with 5 and 10 μM of ARC) (FIGS. 4A and B). […] The transformed cell types may be more dependent on the survivin levels for their survival than their wild type counterparts and thus the reduction in these levels could be lethal to these cells.
Moreover, the effect of 20 μM ARC treatment on wild type fibroblasts was analyzed and little change was found in the cell cycle profile after 24 hours (data not shown) and the cells undergo G2-arrest after 48 hours (FIG. 4D).

Test [5] relates to LIM1215 colon cancer cells. The experiment in a line: Apoptosis by PI staining and flow cytometry in LIM1215 cells. It is filed as cell-based, human. Here is the method: as §2
In order to evaluate the extent to which ARC induces apoptosis relative to that of the other known nucleoside analog DRB, LIM1215 colon cancer cells were treated with either ARC or DRB for 48 hours.
(In general: In flow cytometry, cells or beads pass a laser one at a time.)

For the next test, the target named is T1, RNA polymerase II (Homo sapiens, UniProt P24928).
T1 construct: nuclei were isolated from normally growing untreated HCT-116 cells and treated with each of these agents; endogenous in cells; host or cells: nuclei of HCT-116 colon cancer cells
The test is described as follows: Nuclear run-on assay, nuclei isolated from untreated HCT-116 cells then treated. To be noted: 50 μM ARC, 50 μM DRB or 2 μg/ml α-amanitin. The class given is biochemical. Here is the method: Run-on assays with isolated nuclei were performed as described. Briefly, cells treated with the indicated agents were lysed with hypotonic buffer (10 mM Tris-HCl pH 7.4, 10 mM NaCl and 35 mM MgCl2) and nuclei collected by centrifugation and resuspended in nuclear storage buffer (50 mM HEPES pH 8.0, 5 mM MgCl2, 0.5 mM DTT, 1 mg/ml BSA and 25% (v/v) glycerol) at about 5×10^8 nuclei/ml and stored at −80° C. Transcription reactions were performed in 200 μl volume consisting of 1×10^7 nuclei in the presence of 0.12 M KCl, 7 mM Mg(Ac)2, 25 μCi of [^32P]GTP, 500 μM ATP, UTP and CTP at 30° C. Samples were collected at various time points (18 μl/time point—0, 5, 10, 20 and 30 min) and the reaction terminated by the addition of 57 μl of Sarkosyl solution (1% Sarkosyl, 0.1 M Tris pH 8.0, 0.1 M NaCl, 10 mM EDTA and 200 μg/ml tRNA). The stopped reactions were transferred to Whatman DE81 paper, and washed four times with wash buffer (5% K2HPO4 and 0.3% Na4P2O7) for 10 min, followed by a 5-min water wash. Then the paper was briefly rinsed with 95% ethanol and allowed to dry completely. Radiation was quantitated using a liquid scintillation counter.
In order to evaluate the ability of ARC to bind to and inhibit RNA polymerase II directly (like α-amanitin) or indirectly (like DRB), nuclei were isolated from normally growing untreated HCT-116 cells and treated with each of these agents, and then assayed for rate of transcription by nuclear run-on assay.

`NNc1c(C(N)=O)c2c(N)ncnc2n1[C@@H]1O[C@H](CO)[C@@H](O)[C@H]1O` [ARC, 4-amino-6-hydrazino-7-beta-D-ribofuranosyl-7H-pyrrolo[2,3-d]-pyrimidine-5-carboxamide]: the half-maximal inhibitory concentration (IC50) in the test with HUVECs [1] was around 0.83 µM; in the test with HUVECs [2], around 0.047 µM; in the test on HUVECs [3] (read-out: IC50, cord junctions), around 0.345 µM; in the test on HUVECs [3] (read-out: IC50, cord length), around 0.382 µM. Further, the cell cycle profile result in test [4] (24 hours) is recorded as “little change”; in test [4] (48 hours), “G2-arrest”. For the same compound, the cell killing entry in test [4] (10 or 20 μM, 24 hours) is on record as “not susceptible to ARC-mediated cell killing”. Further, the “apoptosis (PI staining, flow cytometry)” value in test [5] (5 μM, 48 hours) is on record as 37.8%. Besides, the “efficiency in inducing apoptosis relative to DRB” value in test [5] (LIM1215 cells (FIG. 5F)) is given as above 10 fold. Besides, the “rate of transcription, agent added to isolated nuclei” value at RNA polymerase II was “did not affect the rate of transcription”.
